Experimental data: ChEMBL document CHEMBL1275247, “Pharmacokinetics and safety of CXA-101, a new antipseudomonal cephalosporin, in healthy adult male and female subjects receiving single- and multiple-dose intravenous infusions” (Antimicrob Agents Chemother, 2010)

What was measured:
[1] = Renal clearance in healthy human at 1500 mg, iv administered as single dose as 1 hr iv infusion; format: ADME, organism-based, Kidney; settings: in vivo, read-out: CL_renal
[2] = Renal clearance in healthy human at 500 mg, iv administered as single dose as 1 hr iv infusion; format: ADME, organism-based, Kidney; settings: in vivo, read-out: CL_renal
[3] = Mean residence time in healthy human at 1000 mg, iv administered as 1 hr infusion every 8 hrs for 10 days measured on day 1; format: ADME, organism-based; settings: in vivo
[4] = Clearance in healthy human at 500 mg, iv administered as 1 hr infusion every 8 hrs for 10 days measured on day 10; format: ADME, organism-based; settings: in vivo
[5] = Tmax in healthy human at 1000 mg, iv administered as 1 hr infusion every 8 hrs for 10 days measured on day 10; format: ADME, organism-based; settings: in vivo
Homo sapiens [6] = test: Toxicity in healthy human assessed as occurrence of paraesthesia at 500 mg, iv administered as 1 hr infusion every 8 hrs for 10 days; format: organism-based; settings: in vivo
[7] = Half-life in plasma of healthy human 1500 mg, iv administered as 1 hr infusion every 12 hrs for 10 days measured on day 1; format: ADME, organism-based
[8] = Renal clearance in healthy human at 1000 mg, iv administered as 1 hr infusion every 8 hrs for 10 days measured on day 1; format: ADME, organism-based, Kidney; settings: in vivo, read-out: CL_renal
[9] = Mean residence time in healthy human at 2000 mg, iv administered as single dose as 1 hr iv infusion; format: ADME, organism-based; settings: in vivo
[10] = AUC (0 to infinity) in healthy human at 1000 mg, iv administered as single dose as 1 hr iv infusion; format: ADME, organism-based; parameters: dose 1000 mg, route intravenous, time infinity; settings: plasma
[11] = Mean residence time in healthy human at 500 mg, iv administered as single dose as 1 hr iv infusion; format: ADME, organism-based; settings: in vivo
[12] = Tmax in healthy human at 250 mg, iv administered as single dose as 1 hr iv infusion; format: ADME, organism-based; settings: in vivo
[13] = AUC (0 to infinity) in healthy human at 1500 mg, iv administered as 1 hr infusion every 12 hrs for 10 days measured on day 10; format: ADME, organism-based; parameters: dose 1500 mg, route intravenous, time infinity; settings: plasma
[14] = Clearance in healthy human at 500 mg, iv administered as 1 hr infusion every 8 hrs for 10 days measured on day 1; format: ADME, organism-based; settings: in vivo
Homo sapiens [15] = test: Toxicity in healthy human assessed as occurrence of diarrhea at 500 mg, iv administered as 1 hr infusion every 8 hrs for 10 days; format: organism-based; settings: in vivo
[16] = Volume of distribution at steady state in healthy human at 1000 mg, iv administered as 1 hr infusion every 8 hrs for 10 days measured on day 1; format: ADME, organism-based; settings: in vivo
[17] = Clearance in healthy human at 1500 mg, iv administered as 1 hr infusion every 12 hrs for 10 days measured on day 1; format: ADME, organism-based; settings: in vivo
[18] = Half-life in plasma of healthy human 2000 mg administered as single ascending dose, iv for 1 hr infusion; format: ADME, organism-based
[19] = Cmax in healthy human at 500 mg, iv administered as 1 hr infusion every 8 hrs for 10 days measured on day 10; format: ADME, organism-based; parameters: dose 500 mg, route intravenous; settings: in vivo
[20] = Clearance in healthy human at 1000 mg, iv administered as 1 hr infusion every 8 hrs for 10 days measured on day 10; format: ADME, organism-based; settings: in vivo
[21] = Clearance in healthy human at 1500 mg, iv administered as 1 hr infusion every 12 hrs for 10 days measured on day 10; format: ADME, organism-based; settings: in vivo
[22] = Clearance in healthy human at 250 mg, iv administered as single dose as 1 hr iv infusion; format: ADME, organism-based; settings: in vivo
Homo sapiens [23] = test: Toxicity in healthy human assessed as occurrence of headache at 1500 mg, iv administered as single dose as 1 hr iv infusion; format: organism-based; settings: in vivo
[24] = Half-life in plasma of healthy human 500 mg administered as single ascending dose, iv for 1 hr infusion; format: ADME, organism-based
[25] = Cmax in healthy human at 500 mg, iv administered as single dose as 1 hr iv infusion; format: ADME, organism-based; parameters: dose 500 mg, route intravenous; settings: in vivo
[26] = Half-life in plasma of healthy human 500 mg, iv administered as 1 hr infusion every 8 hrs for 10 days measured on day 10; format: ADME, organism-based
[27] = Clearance in healthy human at 1000 mg, iv administered as 1 hr infusion every 8 hrs for 10 days measured on day 1; format: ADME, organism-based; settings: in vivo
[28] = AUC (0 to infinity) in healthy human at 1500 mg, iv administered as 1 hr infusion every 12 hrs for 10 days measured on day 1; format: ADME, organism-based; parameters: dose 1500 mg, route intravenous, time infinity; settings: plasma
[29] = Renal clearance in healthy human at 1000 mg, iv administered as single dose as 1 hr iv infusion; format: ADME, organism-based, Kidney; settings: in vivo, read-out: CL_renal
Homo sapiens [30] = test: Toxicity in healthy human assessed as occurrence of somnolence at 1000 mg, iv administered as single dose as 1 hr iv infusion; format: organism-based; settings: in vivo
[31] = Tmax in healthy human at 1500 mg, iv administered as 1 hr infusion every 12 hrs for 10 days measured on day 1; format: ADME, organism-based; settings: in vivo
[32] = Drug recovery in urine of healthy human at 1000 mg, iv administered as 1 hr infusion every 8 hrs for 10 days measured on day 1; format: ADME, organism-based; settings: read-out: Activity
[33] = Drug recovery in urine of healthy human at 2000 mg, iv administered as single dose as 1 hr iv infusion after 24 hrs; format: ADME, organism-based; settings: read-out: Activity
[34] = Drug recovery in urine of healthy human at 250 mg, iv administered as single dose as 1 hr iv infusion after 24 hrs; format: ADME, organism-based; settings: read-out: Activity
[35] = Drug recovery in urine of healthy human at 1500 mg, iv administered as single dose as 1 hr iv infusion after 24 hrs; format: ADME, organism-based; settings: read-out: Activity
[36] = Volume of distribution at steady state in healthy human at 250 mg, iv administered as single dose as 1 hr iv infusion; format: ADME, organism-based; settings: in vivo
[37] = Clearance in healthy human at 500 mg, iv administered as single dose as 1 hr iv infusion; format: ADME, organism-based; settings: in vivo
[38] = AUC (0 to infinity) in healthy human at 1500 mg, iv administered as single dose as 1 hr iv infusion; format: ADME, organism-based; parameters: dose 1500 mg, time infinity, route intravenous; settings: plasma
[39] = Clearance in healthy human at 1000 mg, iv administered as single dose as 1 hr iv infusion; format: ADME, organism-based; settings: in vivo
[40] = AUC (0 to infinity) in healthy human at 2000 mg, iv administered as single dose as 1 hr iv infusion; format: ADME, organism-based; parameters: dose 2000 mg, route intravenous, time infinity; settings: plasma
[41] = AUC (0 to infinity) in healthy human at 500 mg, iv administered as 1 hr infusion every 8 hrs for 10 days measured on day 10; format: ADME, organism-based; parameters: dose 500 mg, time infinity, route intravenous; settings: plasma
[42] = Volume of distribution at steady state in healthy human at 1500 mg, iv administered as single dose as 1 hr iv infusion; format: ADME, organism-based; settings: in vivo
[43] = Cmax in healthy human at 500 mg, iv administered as 1 hr infusion every 8 hrs for 10 days measured on day 1; format: ADME, organism-based; parameters: dose 500 mg, route intravenous; settings: in vivo
[44] = Cmax in healthy human at 1000 mg, iv administered as single dose as 1 hr iv infusion; format: ADME, organism-based; parameters: dose 1000 mg, route intravenous; settings: in vivo
[45] = Tmax in healthy human at 1500 mg, iv administered as 1 hr infusion every 12 hrs for 10 days measured on day 10; format: ADME, organism-based; settings: in vivo
[46] = Mean residence time in healthy human at 1500 mg, iv administered as 1 hr infusion every 12 hrs for 10 days measured on day 1; format: ADME, organism-based; settings: in vivo

In the case of `Cn1c(N)c(NC(=O)NCCN)c[n+]1CC1=C(C(=O)O)N2C(=O)[C@@H](NC(=O)/C(=N\OC(C)(C)C(=O)[O-])c3nsc(N)n3)[C@H]2SC1` [CEFTOLOZANE], the CL renal at 1 h [1] is reported as 96.2 mL/min, the CL renal at 1 h [2] is reported as 90.4 mL/min and the MRT [3] is reported as 2.64 h. For the same compound, the clearance [4] was 101 mL/min, the Tmax [5] was 1.05 h and the Activity (Homo sapiens [6]) was “Non-toxic”. The half-life [7] was 2.72 h, the CL renal [8] was 112 mL/min and the MRT [9] was 2.54 h. It also gave an AUC(0-inf) [10] of 152 µg·h/mL, an MRT [11] of 2.5 h and a Tmax [12] of 1.03 h. The AUC(0-inf) [13] was 207 µg·h/mL, the clearance [14] was 94.6 mL/min and the Activity (Homo sapiens [15]) was “Non-toxic”. The Vd [16] was 17.8 L, the clearance [17] was 114 mL/min and the half-life [18] was 2.45 h. It also gave a Cmax [19] of 33300 ng/mL, a clearance [20] of 116 mL/min and a clearance [21] of 121 mL/min. For the same compound, the clearance [22] was 104 mL/min, the Activity (Homo sapiens [23]) was “Non-toxic” and the half-life [24] was 2.34 h. It also gave a Cmax [25] of 32200 ng/mL, a half-life [26] of 2.2 h and a clearance [27] of 112 mL/min. The AUC(0-inf) [28] was 219 µg·h/mL, the CL renal at 1 h [29] was 93.4 mL/min and the Activity (Homo sapiens [30]) was “Non-toxic”. It also gave a Tmax [31] of 1.03 h, a dose excreted at 1 day [32] of 99.4% and a dose excreted at 24 h [33] of 97.7%. The dose excreted at 24 h [34] was 97.1%, the dose excreted at 24 h [35] was 93.4% and the Vd [36] was 13.1 L. The clearance [37] was 99.1 mL/min, the AUC(0-inf) [38] was 243 µg·h/mL and the clearance [39] was 110 mL/min. It also gave an AUC(0-inf) [40] of 344 µg·h/mL, an AUC(0-inf) [41] of 82.9 µg·h/mL and a Vd [42] of 17.6 L. It also gave a Cmax [43] of 34300 ng/mL, a Cmax [44] of 58400 ng/mL and a Tmax [45] of 1 h. It also gave an MRT [46] of 2.64 h.
